{"source": "patent US20170191031A1", "about": "“SYSTEMS AND METHODS FOR STEM CELL DIFFERENTIATION” (University of Oslo, priority 2014, published 2017)", "format_in_all_cases": "cell-based, human", "key": {"[1]": {"test_system": "hESC line H1", "test": "Phase I definitive endoderm differentiation, FOXA2/SOX17 immunofluorescence and cell counting", "details": "24 hour treatment, Phase I endpoint 48 hours, CHIR99021 3 μM, BIO 1 μM, Wnt3a 50 ng/ml", "description": "(§1) The scale bars represent 100 μm.\nas §1"}, "[2]": {"test_system": "hESC lines 207 and 360, hiPSC lines Detroit", "test": "Phase I definitive endoderm differentiation of other pluripotent lines", "description": "Cells were seeded onto Matrigel coated 12 well plates in E8 medium at a 1:3-1:4 split ratio, and allowed to adhere for 24 hours at 37° C./5% CO2. It should be noted the optimal cell density for each line needs to be established. The cells were washed with phosphate buffered saline (PBS) before being treated with differentiation media. The differentiation protocol utilises similar base media to a well-established differentiation protocol (Hay et al., Proc Natl Acad Sci USA 105, 12301-12306 2008), with replacement of all growth factors with small molecules, and minor adjustments in timing. The protocol incorporates several stages (FIG. 1) utilising different small molecules.\n(§2) Phase I of differentiation consists of a 24 hour treatment with RPMI-B27±insulin (RPMI 1640 GlutaMAX+B27 supplement, both from Life Technologies) plus 3-4 μM CHIR99021 (Stemgent), followed by a 24 hour treatment with RPMI-B27 alone. Phase II consists of 5 days of treatment with Knockout DMEM containing 20% Knockout Serum Replacement, 2 mM GlutaMAX, 100 μM 2-mercaptoethanol, 1×MEM non-essential amino acids (Life Technologies) and 1% DMSO (Sigma-Aldrich). Phase III consists of 10 days of treatment with Leibovitz L-15 media containing 8.3% tryptose phosphate broth, 10 μM hydrocortisone 21-hemisuccinate, 50 μg/ml sodium-L-ascorbate, 100 nM dexamethasone (all from Sigma-Aldrich), 0.58% insulin-transferrin-selenium (ITS), 2 mM GlutaMAX (all from Life Technologies), 8.3% foetal bovine serum (Lonza), and 100 nM Dihexa (kind gift from Prof. Joseph Harding, Washington State University). During Phases II and III cells are fed every 48 hours. Cells were photographed during differentiation using a Zeiss phase contrast microscope and ZEN software. The scale bars represent 100 μm.\nCells were washed with PBS before being fixed with a 10 minute treatment of ice cold methanol. Fixed cells were washed in 0.1% PBS-T: PBS containing 0.1% Tween 20 (Sigma-Aldrich). […] Cells were imaged using a Zeiss Observer Fluorescence Microscope and Axiovision imaging software. […]\n(§3) Immuno-stained cells were quantified for expression of stage specific markers by manual counting. For Phase I, FOXA2 and SOX17 were counted separately. For Phase II, cells were scored positively if the nucleus was stained for HNF4A and the cytoplasm was stained for AFP. For Phase III, cells were scored positively if the nucleus was HNF4A positive and the cytoplasm was ALB positive. Phase III cells were also quantified for AFP and A1AT staining and were counted as positive if the cytoplasm was stained. […] A minimum of 10 fields of view were quantified, with a minimum of 250 cells counted per field of view. Percentages are presented as the average of all field quantifications, plus or minus the standard deviation across all fields."}, "[3]": {"test_system": "hESC line H1 and hiPSC line Detroit", "test": "Definitive endoderm differentiation in 3D alginate scaffold, TaqMan", "details": "cells encapsulated in alginate scaffold; Phase I conditions RPMI-B27+Chir", "description": "Differentiation of the hESC line H1 and the hiPSC line Detroit was performed in a 3D environment by encapsulating the cells in an alginate scaffold. The cells were cultured using the same conditions as in 2D with the exception that the spheres were cultured for 6 days in human ES media, then transferred to Phase I conditions (RPMI-B27+Chir). All pluripotency marks were maintained as assessed by TaqMan, to the point prior to transition to Phase I. The ability of hPSCs to be directed to definitive endoderm (DE) in 3D was assessed via the DE marks SOX17 and FOXA2. […] Further differentiation through phases II and III is performed as described above."}, "[4]": {"test_system": "hESC line H1", "test": "Phase I gene expression by TaqMan RT-qPCR", "description": "as §2, with “Cells were photographed during differentiation using a Zeiss phase contrast microscope and ZEN software. The scale bars represent 100 μm.” left out\nRNA was isolated from cells using TRIzol according to manufacturer's instructions and quantified using a spectrophotometer (NanoDrop). cDNA was prepared using the High Capacity Reverse Transcription kit and a thermal cycler (both from Life Technologies). […] Expression levels were quantified relative to ACTB and normalised to undifferentiated pluripotent control samples or definitive endoderm cells as specified. […]"}, "[5]": {"test_system": "hepatic progenitors", "test": "Phase III hepatocyte maturation, optimisation of concentrations", "details": "established in HepatoZYME medium; morphology and function", "description": "as §2, with “Phase III consists of 10 days of treatment with Leibovitz L-15 media containing 8.3% tryptose” left out"}, "[6]": {"test_system": "hESC line 207 and hiPSC Detroit RA, RB, RC derived definitive endoderm", "test": "Phase II hepatic specification of other pluripotent lines", "details": "all lines tested; Phase II conditions, 5 days", "description": "Phase I of differentiation consists of a 24 hour treatment with RPMI-B27±insulin (RPMI 1640 GlutaMAX+B27 supplement, both from Life Technologies) plus 3-4 μM CHIR99021 (Stemgent), followed by a 24 hour treatment with RPMI-B27 alone. Phase II consists of 5 days of treatment with Knockout DMEM containing 20% Knockout Serum Replacement, 2 mM GlutaMAX, 100 μM 2-mercaptoethanol, 1×MEM non-essential amino acids (Life Technologies) and 1% DMSO (Sigma-Aldrich). […]\nCells were washed with PBS before being fixed with a 10 minute treatment of ice cold methanol. […] Cells were imaged using a Zeiss Observer Fluorescence Microscope and Axiovision imaging software. […]\nas §3"}, "[7]": {"test_system": "CYP1A2", "test": "Cytochrome P450 induction, P450-Glo CYP1A2", "details": "100 μM, 72 hours", "protocol": "Induction of cytochrome P450 activity was assessed in both small molecule and growth factor derived HLCs. CYP1A2 activity was detected using the P450-Glo CYP1A2 Induction/Inhibition Assay kit (Promega, Cat. no. V8422). […] Assays were performed according to the manufacturer's instructions for non-lytic P450-Glo assays using cultured cells in monolayers. […] Briefly, cells were cultured to day 20 of the differentiation protocol and Rifampicin or Omeprazole was added to L-15 culture medium, which was formulated as described above, but without dexamethasone or hydrocortisone. […] Briefly, for CYP1 A2 the substrate Luciferin-1A2 was diluted to 6 μM in PBS (calcium/magnesium free) containing 3 mM freshly prepared salicylamide (Sigma). The Luciferin substrate was added to each well (1 ml per well of a 6 well plate), and incubated for 60 minutes followed by detection. […] Basal activity was assessed as above with the omission of inducers. In addition, no cell media controls were included. Finally as a negative control, the pluripotent hESC line H1 was assayed for CYP activity as described above. All data was normalised to total protein content in each well. Data is presented as the mean values of 6 independent experiments; error bars represent standard deviation."}, "[8]": {"test_system": "H1 smHLCs", "test": "Uptake of indocyanine green", "details": "1 mg/ml, 1 hour; phase microscopy", "description": "In order to assess glycogen storage, differentiated cells were fixed and treated with a periodic acid-Schiff staining kit (Sigma-Aldrich) in accordance with manufacturer's instructions and imaged using a Zeiss phase contrast microscope and ZEN software. The scale bars represent 100 μm. The cellular uptake of indocyanine green was assessed. Briefly, ICG (Sigma-Aldrich) was reconstituted in water and used at a final concentration of 1 mg/ml. Cells were incubated in media supplemented with ICG for 1 hour, the cells were then washed with PBS and imaged using a Zeiss phase contrast microscope and ZEN software."}, "[9]": {"details": "all lines (207, Detroit RA, RB, RC), 4 μM in RPMI-B27 minus insulin, 48 hours"}}, "note": "Non-standard residues stand in square brackets, D forms with d. Residues, ends and D or L forms follow the SMILES beside them. *: point of attachment. Hexanoyl = CCCCCC(=O)*; Ahx = NCCCCCC(=O)O"}
{"molecule": "O=C1Nc2cc(Br)ccc2/C1=C1/Nc2ccccc2/C1=N\\O", "note": "[BIO, (2′Z,3′E)-6-Bromoindirubin-3′-oxime]", "values": [{"measurement": "Expression of DE proteins FOXA2 and SOX17 by immunofluorescence", "setting": "[1]", "value": "produce FOXA2/SOX17 positive cells"}]}
{"molecule": "Cc1c[nH]c(-c2cnc(NCCNc3ccc(C#N)cn3)nc2-c2ccc(Cl)cc2Cl)n1", "note": "[CHIR99021]", "values": [{"measurement": "Expression of DE proteins FOXA2 and SOX17 by immunofluorescence", "setting": "[1]", "value": "equivalent co-expression"}, {"measurement": "Phase I differentiation under H1 conditions", "setting": "[2]; 3 μM, 24 hour treatment, then 24 hours RPMI-B27", "value": "very inefficient"}, {"measurement": "FOXA2 positive cells at Phase I endpoint", "setting": "[2]; [9]", "value": "81%-84%"}, {"measurement": "SOX17 positive cells at Phase I endpoint", "setting": "[2]; [9]", "value": "79%-82%"}, {"measurement": "Optimal concentration for Phase I differentiation", "setting": "[2]; titration 1-10 μM in RPMI-B27±insulin, optimum in RPMI-B27 minus insulin", "value": 4, "unit": "µM"}, {"measurement": "Induction of SOX17 and FOXA2 in 3D over 2D differentiation", "setting": "[3]", "value": "an order of magnitude induction"}, {"measurement": "Time to rapid upregulation of NODAL after exposure", "setting": "[4]; 3 μM", "value": "≤ 4", "unit": "h"}, {"measurement": "SOX7 levels (primitive endoderm marker) during Phase I", "setting": "[4]; 3 μM 24 hour, then 24 hours RPMI-B27", "value": "No upregulation"}]}
{"molecule": "C[C@@H]1C[C@H]2[C@@H]3CCC4=CC(=O)C=C[C@]4(C)[C@@]3(F)[C@@H](O)C[C@]2(C)[C@@]1(O)C(=O)CO", "note": "[DEX, dexamethasone]", "values": [{"measurement": "Optimal concentration for hepatic maturation", "setting": "[5]", "value": 100, "unit": "nM"}]}
{"molecule": "C[S+](C)[O-]", "note": "[DMSO, Dimethylsulfoxide]", "values": [{"measurement": "Efficiency based on AFP/HNF4A co-expression", "setting": "[6]", "value": "86%-89%"}]}
{"molecule": "CCCCCC(=O)N[C@@H](Cc1ccc(O)cc1)C(=O)N[C@H](C(=O)NCCCCCC(N)=O)[C@@H](C)CC", "note": "[Dihexa, N-hexanoic-Tyr, Ile-(6) aminohexanoic amide] (Hexanoyl-Tyr-Ile-[Ahx]-NH2)", "values": [{"measurement": "Optimal concentration for hepatic maturation", "setting": "[5]", "value": 100, "unit": "nM"}]}
{"molecule": "COc1ccc2[nH]c([S+]([O-])Cc3ncc(C)c(OC)c3C)nc2c1", "note": "(stereo not drawn) [Omeprazole]", "values": [{"measurement": "Induction of CYP1A2 activity in smHLCs", "setting": "[7]", "value": "significant induction"}]}
{"molecule": "CC1(C)C(/C=C/C=C/C=C/C=C2\\N(CCCCS(=O)(=O)O)c3ccc4ccccc4c3C2(C)C)=[N+](CCCCS(=O)(=O)[O-])c2ccc3ccccc3c21", "note": "[indocyanine green]", "values": [{"measurement": "Cellular uptake in smHLCs", "setting": "[8]", "value": "ICG positive cells were clearly visible"}]}
{"molecule": "Wnt3a", "values": [{"measurement": "Expression of DE proteins FOXA2 and SOX17 by immunofluorescence", "setting": "[1]", "value": "sufficient to produce populations of cells that expressed the DE markers FOXA2 and SOX17"}]}
